This passage reports melting point results from patent US6518423B1, “Benzopiperidine derivatives” (Eisai Co., Ltd., priority 1996, dated 2003).

Bounds are passed on as bounds.

As a reminder, the melting point is the temperature of the solid-liquid transition.

`N#CN=C(N)c1ncnc2c1ncn2Cc1ccc2c(c1)Nc1nccnc1S2` showed a melting point above 290 °C.

`OCC(O)C1CCN(Cc2ccc3c(c2)Nc2nccnc2S3)CC1` (stereo not shown) had a melting point of 182 to 185 °C. `COC(=O)c1ccc2c(c1)Nc1nccnc1S2` showed a melting point of 265 to 268 °C. `c1cc(CCc2ccc3c(c2)Nc2nccnc2S3)ccn1`: the melting point fell in the range of 179 to 183 °C. In turn, `O=C(O)Cc1cc2c(s1)CN(Cc1ccc3c(c1)Nc1nccnc1S3)CC2` gave a melting point of 98 to 105 °C.

As to `O=C([O-])C12CC[N+](Cc3ccc4c(c3)Nc3nccnc3S4)(CC1)CC2`, the melting point is 229 to 230 °C. Regarding `CCOC(=O)C(C)CCC1CCN(C(=N)Cc2ccc3c(c2)Nc2nccnc2S3)CC1.Cl` (stereo not shown), the melting point was 219 to 220 °C.

In the case of `O=C(O)CS(=O)(=O)NC1CCN(Cc2ccc3c(c2)Nc2nccnc2S3)CC1`, the melting point lay in the range of 200 to 210 °C. `CN(Cc1ccc(C(=O)O)cc1)Cc1ccc2c(c1)Nc1nccnc1S2`: the melting point was 241 to 244 °C. `O=C(NCc1ccc2c(c1)Nc1nccnc1S2)c1ccncc1`: the melting point was 249 to 253 °C (dec.). In turn, `OC1C2CCCC1CN(Cc1ccc3c(c1)Nc1nccnc1S3)C2` (stereo not shown) [Example 126] came in with a melting point of 215 to 219 °C. Consider `CC(CCC1CCN(C(=O)Cc2ccc3c(c2)Nc2nccnc2S3)CC1)C(=O)O` (stereo not shown), for which the melting point lay within 84 to 89 °C. Take `O=C(O)C(F)=C1C2CCCC1CN(Cc1ccc3c(c1)Nc1nccnc1S3)C2`: the melting point was 223 to 225 °C (dec.). The result for `O=C(O)CC1CC(C2CCN(Cc3ccc4c(c3)Nc3nccnc3S4)CC2)C1` (stereo not shown) reads 215 to 220 °C; that for `N#CN=CNCc1ccc2c(c1)Nc1nccnc1S2`, 224 to 226 °C. On to `CS(=O)(=O)NC1CN=C(Cc2ccc3c(c2)Nc2nccnc2S3)NC1.Cl` (stereo not shown), for which the melting point fell in the range of 275 to 277 °C. In the case of `O=C(O)CN1c2ccccc2Nc2nccnc21`, the melting point lay in the range of 210 to 212 °C. The result for `CC(CCC1CCN(CC(O)c2ccc3c(c2)Nc2nccnc2S3)CC1)C(=O)O` (stereo not shown) reads 239 to 242 °C; that for `C/C(=C\C(=O)O)CC1CCN(Cc2ccc3c(c2)Nc2nccnc2S3)CC1`, 126 to 130 °C; that for `CN1CC2CN(Cc3ccc4c(c3)Nc3nccnc3S4)CC(C1)C2CC(=O)O` (stereo not shown), 220 °C (dec.). As for `CC(C)(O)C(=O)CC(SCC(=O)O)C1CCN(Cc2ccc3c(c2)Nc2nccnc2S3)CC1` (stereo not shown), the melting point was 130 to 132 °C.

Compound `O=C(O)CC1CC2CN(Cc3ccc4c(c3)Nc3nccnc3S4)CC2C1` (stereo not shown) [711] gave a melting point of 112 to 117 °C. With `CN1c2ccccc2Nc2nccnc21` the figure was 229 to 231 °C. For `CN(C)S(=O)(=O)NC1CN=C(Cc2ccc3c(c2)Nc2nccnc2S3)NC1` (stereo not shown), the melting point was in the range of 251 to 254 °C. With `C/C(=C\C1C2(C)CCCC1(C)CN(Cc1ccc3c(c1)Nc1nccnc1S3)C2)C(=O)O` (stereo not shown) the figure was 249 to 251 °C. With `O=C(O)CCN1CCC(NCc2ccc3c(c2)Nc2nccnc2S3)CC1` the figure was 130 to 134 °C. The result for `c1csc(NCc2ccc3c(c2)Nc2nccnc2S3)n1` reads 230 to 235 °C.

Turning to `CN(C)CCCNC(=O)Cc1ccc2c(c1)Nc1nccnc1S2`, the melting point was in the range of 145 to 148 °C. The result for `O=S(=O)(c1ccccc1)N(Cc1ccc2c(c1)Nc1nccnc1S2)c1cccnc1` reads 205 to 260 °C. The result for `c1cnc2c(n1)Nc1cc(Cn3cnc4ncncc43)ccc1S2` reads 277 to 280 °C. The result for `CNS(=O)(=O)NC1CCN(Cc2ccc3c(c2)Nc2ncccc2S3)CC1` reads 216 to 218 °C.

Consider `O=C(O)C1CCC2(CC1)CCN(Cc1ccc3c(c1)Nc1nccnc1S3)C2` (stereo not shown), for which the melting point was 146 °C (dec.). With `O=C(O)C1CCN(c2ncnc3c2ncn3Cc2ccc3c(c2)Nc2nccnc2S3)CC1` the figure was 238 to 240 °C; with `CN1c2cc(O)ccc2Nc2nccnc21`, above 275 °C; with `CCOC(=O)c1c(C)ncn1Cc1ccc2c(c1)Nc1nccnc1S2`, 194 to 196 °C. `Brc1ccc(NCc2ccc3c(c2)Nc2nccnc2S3)nc1`: the melting point was 265 to 268 °C. With `c1cn(CCCc2ccc3c(c2)Nc2nccnc2S3)cn1`, the melting point fell in the range of 139 to 141 °C.

In the case of `O=C(O)C1CCN(S(=O)(=O)NC2CCN(Cc3ccc4c(c3)Nc3nccnc3S4)CC2)CC1`, the melting point lay within 54 to 55 °C. The result for `O=C(O)CC1CC2(C1)C1CCCC2CN(Cc2ccc3c(c2)Nc2nccnc2S3)C1` (stereo not shown) reads 199 to 201 °C. In turn, `CN(C)c1ccc(NCc2ccc3c(c2)Nc2nccnc2S3)cn1` came in with a melting point of 244 to 247 °C.

`CC(CC(=O)O)C1CCN(Cc2ccc3c(c2)Nc2nccnc2S3)CC1` (stereo not shown) returned a melting point of 218 to 220 °C. With `CNc1c(N2CCN(Cc3ccc4c(c3)Nc3nccnc3S4)CC2)c(=O)c1=O` the figure was above 300 °C. The result for `FC(F)(F)c1cnc(NCc2ccc3c(c2)Nc2nccnc2S3)c(Cl)c1` reads 158 to 161 °C. The result for `NC(=O)C1CCN(Cc2ccc3c(c2)Nc2nccnc2S3)CC1` reads 225 to 228 °C. `CN1c2ccc(C(N)c3ccccn3)cc2Nc2nccnc21` (stereo not shown) displayed a melting point above 275 °C. With `CC1CN(Cc2ccc3c(c2)Nc2nccnc2S3)CC(C)C1CC(=O)O` (stereo not shown) the figure was 200 °C (dec.); with `OCCC12CCN(Cc3ccc4c(c3)Nc3nccnc3S4)CC1C2` (stereo not shown), 57 to 60 °C. With `COC(c1cccnc1)c1ccc2c(c1)Nc1nccnc1S2` (stereo not shown) the figure was 156 to 188 °C; with `O=C(O)C(F)C1CCN(Cc2ccc3c(c2)Nc2nccnc2S3)CC1` (stereo not shown), 163 °C (dec.); with `O=C(O)COc1ccc(C2CCN(Cc3ccc4c(c3)Nc3nccnc3S4)CC2)cc1`, 258 to 262 °C. The result for `CCOC(=O)C(C)(C)CCCCc1ccc(NCc2ccc3c(c2)Nc2nccnc2S3)cn1` reads 160 to 164 °C; that for `OCCSc1ccc(NCc2ccc3c(c2)Nc2nccnc2S3)cn1`, 138 to 142 °C. Compound `COC(=O)CC1C2CCCC1CN(Cc1ccc3c(c1)Nc1nccnc1S3)C2` (stereo not shown) returned a melting point of 127 to 129 °C.

Turning to `CC1C[C@@H](C)C2CN(Cc3ccc4c(c3)Nc3nccnc3S4)CC1C21CC(CC(=O)O)C1` (stereo partly shown), the melting point fell in the range of 205 to 206 °C. The result for `O=C(O)/C=C1/CCCN(Cc2ccc3c(c2)Nc2nccnc2S3)C1` reads 216 to 220 °C. The result for `CC(C(=O)O)C1CCN(Cc2ccc3c(c2)Nc2nccnc2S3)CC1` (stereo not shown) reads 240 to 243 °C. The result for `O=C(O)COc1ccc(NCc2ccc3c(c2)Nc2nccnc2S3)cn1` reads 170 °C; that for `CS(=O)(=O)Nc1ccc(-c2cn(Cc3ccc4c(c3)Nc3nccnc3S4)cn2)cc1`, 253 to 255 °C. As to `c1ccc2ncc(NCc3ccc4c(c3)Nc3nccnc3S4)cc2c1`, the melting point was 160 to 164 °C. With `CN(CCCCCC(=O)O)Cc1ccc2c(c1)Nc1nccnc1S2` the figure was 191 to 193 °C.

Turning to `O=C(Cc1ccc2c(c1)Nc1nccnc1S2)NCCCN1CCC(C(=O)O)CC1`, the melting point is 143 °C (dec.). With `CC(CCC1(CO)CCN(Cc2ccc3c(c2)Nc2nccnc2S3)CC1)C(=O)O` (stereo not shown) the figure was 105 to 110 °C; with `NC(=O)c1ccc(NCc2ccc3c(c2)Nc2nccnc2S3)nc1`, 245 to 250 °C; with `O=C1NC(=O)C2(CCN(Cc3ccc4c(c3)Nc3nccnc3S4)CC2)N1`, above 275 °C. The result for `C/C(O)=C(\C#N)C(=O)Nc1ccc(-c2cn(Cc3ccc4c(c3)Nc3nccnc3S4)cn2)cc1` reads 259 to 261 °C. The result for `O=C(O)CSCC1CCN(Cc2ccc3c(c2)Nc2nccnc2S3)CC1` reads 110 to 113 °C; that for `c1cc2c(cn1)Sc1ccc(CN3CCCCC3)cc1N2`, 163 to 166 °C; that for `CC(=O)NCCC1CCN(Cc2ccc3c(c2)Nc2nccnc2S3)CC1`, 194 to 196 °C. `O=Cc1nccn1Cc1ccc2c(c1)Nc1nccnc1S2` displayed a melting point of 218 to 219 °C. The result for `CCOC(=O)CCCCSc1ncnc2ncn(Cc3ccc4c(c3)Nc3nccnc3S4)c12` reads 175 to 178 °C; that for `N#CN=C(Cc1ccc2c(c1)Nc1nccnc1S2)NCCO`, 268 to 270 °C; that for `OCCCCN1c2ccccc2Nc2nccnc21`, 138 to 139 °C. The result for `CS(=O)(=O)N1CCC(N(CC(=O)O)Cc2ccc3c(c2)Nc2nccnc2S3)CC1` reads 185 to 189 °C.

The compound `c1cc2ccnc-2n(Cc2ccc3c(c2)Nc2nccnc2S3)c1` registered a melting point of 210 to 214 °C. With `CC(CO)C1C2CCCC1CN(Cc1ccc3c(c1)Nc1nccnc1S3)C2` (stereo not shown) the figure was 88 to 92 °C. `O=C(O)c1ccc(CC2CCN(Cc3ccc4c(c3)Nc3nccnc3S4)CC2)cc1` displayed a melting point of 158 to 161 °C. The result for `O=C(O)C1CC2(C1)C1CCCC2CN(Cc2ccc3c(c2)Nc2nccnc2S3)C1` (stereo not shown) reads 98 to 101 °C.

Compound `O=C(O)CC1CC2CN(Cc3ccc4c(c3)Nc3nccnc3S4)CC2C1` (stereo not shown) [714] registered a melting point of 110 to 115 °C. With `O=S(=O)(NC1CCN(Cc2ccc3c(c2)Nc2nccnc2S3)CC1)N1CCCCC1` the figure was 56 to 57 °C. The result for `Cc1nc2cncnc2n1Cc1ccc2c(c1)Nc1nccnc1S2` reads 191 to 193 °C; that for `CC(C(=O)O)=C1CC2(CCN(Cc3ccc4c(c3)Nc3nccnc3S4)CC2)C1`, 251 to 252 °C.

`COCOc1ccc2c(c1)Nc1nccnc1N2C` had a melting point of 197 to 198 °C. With `Cl.N=C(N)Cc1ccc2c(c1)Nc1nccnc1S2` the figure was above 280 °C; with `CC(=O)N(Cc1ccc2c(c1)Nc1nccnc1S2)c1cccnc1`, 212 to 214 °C. The result for `O=C1CC2(CCN(Cc3ccc4c(c3)Nc3nccnc3S4)CC2)CO1` reads 180 to 182 °C. The result for `C1=NCCCN1Cc1ccc2c(c1)Nc1nccnc1S2.Cl` reads 238 °C (dec.). As to `OC(c1ccc2c(c1)Nc1nccnc1S2)c1ccccc1CN1CCCCC1` (stereo not shown), the melting point lay within 219 to 221 °C. With `c1cnc2c(n1)Nc1cc(CN3CCC3)ccc1S2` the figure was 158 to 161 °C.
